Earlier results, collected in EP0163237A2, “Di- and tri-peptidal renin inhibitors” (Merck & Co., Inc., priority 1984, dated 1985).
Where a SMILES comes first, the peptide text is derived from it. [ ]: non-standard residue; d: D form. The star is where a group is joined. Sta = CC(C)C[C@H](N)[C@@H](O)CC(=O)O; Isovaleryl = CC(C)CC(=O)*

System: hog renin
Conditions: after the injection of hog renin into nephrectomized rats

SMILES: CC(C)CC(=O)N[C@H](C(=O)N[C@H](C(=O)N[C@@H](CC(C)C)[C@@H](O)CC(=O)N[C@@H](C)C(=O)N[C@@H](CC(C)C)[C@@H](O)CC(=O)O)C(C)C)C(C)C [pepstatin] (Isovaleryl-VV[Sta]A[Sta]-OH)
- blood pressure in vivo: reduce blood pressure
